Results as given in ChEMBL document CHEMBL1201862, “PubChem BioAssay data set” (2004).
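1) Cells in 96-well plates. 2) Compound, 48 h, 5 concentrations. 3) Linear interpolation between surrounding doses. 4) Unreached endpoint = highest concentration. GI50 = concentration required for 50% inhibition of growth.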 Activity calls are given as the source filed them. Rule as the data show it: active = GI50 up to about 1.1 µM and inactive = higher. Where a SMILES comes first, the peptide text is derived from it. [ ]: non-standard residue; d: D form. Phe(4-NO2) = N[CH](Cc1ccc([N+](=O)[O-])cc1)C(=O)O

What was measured:
Test in all cases: growth of human tumour cells (NCI), 48 h
HCT-116 = test system: HCT-116
OVCAR-3 = test system: OVCAR-3
SK-MEL-2 = test system: SK-MEL-2
Malme-3M = test system: Malme-3M
EKVX = test system: EKVX
NCI-H226 = test system: NCI-H226
U-251 = test system: U-251
NCI-H23 = test system: NCI-H23
SW-620 = test system: SW-620
HT-29 = test system: HT-29
M14 = test system: M14
MDA-MB-435 = test system: MDA-MB-435
MDA-N = test system: MDA-N
RPMI-8226 = test system: RPMI-8226
DU-145 = test system: DU-145
RXF 393 = test system: RXF 393
MOLT-4 = test system: MOLT-4
HCT-15 = test system: HCT-15
UACC-257 = test system: UACC-257
HCC 2998 = test system: HCC 2998

Compound: N=C(N)NCCCC(=O)O
- GI50 (HCT-116): > 100 µM (inactive)
- GI50 (OVCAR-3): > 100 µM (inactive)
- GI50 (SK-MEL-2): > 100 µM (inactive)
- GI50 (Malme-3M): > 100 µM (inactive)
- GI50 (EKVX): > 100 µM (inactive)
- GI50 (NCI-H226): > 100 µM (inactive)
- GI50 (U-251): > 100 µM (inactive)
- GI50 (NCI-H23): > 100 µM (inactive)
- GI50 (SW-620): > 100 µM (inactive)
- GI50 (HT-29): > 100 µM (inactive)
- GI50 (M14): > 100 µM (inactive)
- GI50 (MDA-MB-435): > 100 µM (inactive)
- GI50 (MDA-N): > 100 µM (inactive)
- GI50 (RPMI-8226): > 100 µM (inactive)
- GI50 (DU-145): > 100 µM (inactive)
- GI50 (RXF 393): > 100 µM (inactive)
- GI50 (MOLT-4): > 100 µM (inactive)
- GI50 (HCT-15): > 100 µM

Compound: COc1ccccc1C1SCC(=O)N1c1ccc(-n2c(-c3ccccc3)nc3ccccc3c2=O)cc1 (stereo not given)
- GI50 (HCT-116): 57.1 µM (inactive)
- GI50 (OVCAR-3): > 100 µM (inactive)
- GI50 (SK-MEL-2): > 100 µM (inactive)
- GI50 (Malme-3M): 69.2 µM (inactive)
- GI50 (EKVX): > 100 µM (inactive)
- GI50 (UACC-257): > 100 µM (inactive)
- GI50 (NCI-H226): 74.1 µM (inactive)
- GI50 (U-251): 73.1 µM (inactive)
- GI50 (NCI-H23): > 100 µM (inactive)
- GI50 (HCC 2998): 70.6 µM (inactive)
- GI50 (SW-620): 63.5 µM (inactive)
- GI50 (HT-29): 64.1 µM (inactive)
- GI50 (MDA-MB-435): 53.8 µM (inactive)
- GI50 (MDA-N): > 100 µM (inactive)
- GI50 (RPMI-8226): > 100 µM (inactive)
- GI50 (DU-145): 52.5 µM (inactive)
- GI50 (MOLT-4): 28.8 µM (inactive)
- GI50 (HCT-15): 54.2 µM

Compound: COC(=O)CCC(NC(=O)C(CCC(=O)OC)NC(=O)C(CCC(=O)OC)NC(=O)C(CCC(=O)OC)NC(=O)C(CCC(=O)OC)NC(=O)C(Cc1ccc([N+](=O)[O-])cc1)NC(=O)C(CCC(=O)OC)NC(=O)C(CCC(=O)OC)NC(=O)C(CCC(=O)OC)NC(=O)C(CCC(=O)OC)NC(=O)C(CCC(=O)OC)NC(C)=O)C(N)=O (stereo not given) (Ac-E(OMe)E(OMe)E(OMe)E(OMe)E(OMe)[Phe(4-NO2)]E(OMe)E(OMe)E(OMe)E(OMe)E(OMe)-NH2; configuration not given here)
- GI50 (HCT-116): > 100 µM (inactive)
- GI50 (SK-MEL-2): > 100 µM (inactive)
- GI50 (Malme-3M): > 100 µM (inactive)
- GI50 (EKVX): > 100 µM (inactive)
- GI50 (UACC-257): > 100 µM (inactive)
- GI50 (U-251): > 100 µM (inactive)
- GI50 (NCI-H23): > 100 µM (inactive)
- GI50 (SW-620): > 100 µM (inactive)
- GI50 (HT-29): > 100 µM (inactive)
- GI50 (M14): 37.9 µM (inactive)
- GI50 (MDA-MB-435): > 100 µM (inactive)
- GI50 (MDA-N): > 100 µM (inactive)
- GI50 (RPMI-8226): > 100 µM (inactive)
- GI50 (DU-145): > 100 µM (inactive)
- GI50 (RXF 393): > 100 µM (inactive)
- GI50 (MOLT-4): > 100 µM (inactive)
- GI50 (HCT-15): > 10 µM

Compound: Cc1cc2c(cc1N)C(C)C1(CCC(=O)N2Cc2ccccc2)OCCO1 (stereo not given)
- GI50 (HCT-116): > 100 µM (inactive)
- GI50 (OVCAR-3): > 100 µM (inactive)
- GI50 (SK-MEL-2): > 100 µM (inactive)
- GI50 (Malme-3M): 89.7 µM (inactive)
- GI50 (EKVX): > 100 µM (inactive)
- GI50 (UACC-257): > 100 µM (inactive)
- GI50 (NCI-H226): > 100 µM (inactive)
- GI50 (U-251): > 100 µM (inactive)
- GI50 (NCI-H23): > 100 µM (inactive)
- GI50 (HCC 2998): > 100 µM (inactive)
- GI50 (SW-620): > 100 µM (inactive)
- GI50 (HT-29): > 100 µM (inactive)
- GI50 (M14): > 100 µM (inactive)
- GI50 (MDA-MB-435): > 100 µM (inactive)
- GI50 (MDA-N): > 100 µM (inactive)
- GI50 (RPMI-8226): 57.4 µM (inactive)
- GI50 (DU-145): > 100 µM (inactive)
- GI50 (MOLT-4): > 100 µM (inactive)
- GI50 (HCT-15): > 100 µM

Compound: CC(=O)OCC(C)C1=C(OC(C)=O)C(=O)C2(C)C/C=C(/C)CC/C=C(\C)CCC(OC(C)=O)C(C)CCC12 (stereo not given)
- GI50 (HCT-116): 16.9 µM (inactive)
- GI50 (SK-MEL-2): 15 µM (inactive)
- GI50 (UACC-257): 17.5 µM (inactive)
- GI50 (U-251): 17.1 µM (inactive)
- GI50 (HCC 2998): 15.8 µM (inactive)
- GI50 (SW-620): 19.5 µM (inactive)
- GI50 (HT-29): 17.8 µM (inactive)
- GI50 (M14): 16.6 µM (inactive)
- GI50 (MDA-MB-435): 15.9 µM (inactive)
- GI50 (MDA-N): 17.1 µM (inactive)
- GI50 (RPMI-8226): 14.3 µM (inactive)
- GI50 (DU-145): 20.1 µM (inactive)
- GI50 (MOLT-4): 12.9 µM (inactive)
- GI50 (HCT-15): 16.9 µM

Compound: O=c1[nH]c(=O)n(C2CC(O)C(CO)O2)cc1/N=N/NCCCc1ccccc1 (stereo not given)
- GI50 (HCT-116): > 100 µM (inactive)
- GI50 (OVCAR-3): > 100 µM (inactive)
- GI50 (SK-MEL-2): > 100 µM (inactive)
- GI50 (Malme-3M): > 100 µM (inactive)
- GI50 (EKVX): > 100 µM (inactive)
- GI50 (UACC-257): > 100 µM (inactive)
- GI50 (NCI-H226): > 100 µM (inactive)
- GI50 (NCI-H23): > 100 µM (inactive)
- GI50 (HCC 2998): > 100 µM (inactive)
- GI50 (HT-29): > 100 µM (inactive)
- GI50 (M14): > 100 µM (inactive)
- GI50 (MDA-MB-435): > 100 µM (inactive)
- GI50 (MDA-N): > 100 µM (inactive)
- GI50 (DU-145): > 100 µM (inactive)
- GI50 (RXF 393): > 100 µM (inactive)
- GI50 (MOLT-4): > 100 µM (inactive)
- GI50 (HCT-15): > 100 µM

Compound: N#CCCN(CCC#N)c1ccc(/C=C2\N=C(c3ccccc3)N(c3ccc(Cl)cc3)C2=O)cc1
- GI50 (HCT-116): > 100 µM (inactive)
- GI50 (OVCAR-3): > 100 µM (inactive)
- GI50 (SK-MEL-2): 76.6 µM (inactive)
- GI50 (Malme-3M): > 100 µM (inactive)
- GI50 (EKVX): > 100 µM (inactive)
- GI50 (UACC-257): > 100 µM (inactive)
- GI50 (NCI-H226): > 100 µM (inactive)
- GI50 (U-251): > 100 µM (inactive)
- GI50 (SW-620): > 100 µM (inactive)
- GI50 (HT-29): > 100 µM (inactive)
- GI50 (M14): > 100 µM (inactive)
- GI50 (MDA-MB-435): 45.5 µM (inactive)
- GI50 (MDA-N): > 100 µM (inactive)
- GI50 (RPMI-8226): > 100 µM (inactive)
- GI50 (DU-145): > 100 µM (inactive)
- GI50 (RXF 393): > 100 µM (inactive)
- GI50 (MOLT-4): > 100 µM (inactive)
- GI50 (HCT-15): > 100 µM

Compound: CC1(C)CC2=NC(SSC3=C(C#N)C(c4ccc(Br)cc4)C4=C(O)CC(C)(C)CC4=N3)=C(C#N)C(c3ccc(Br)cc3)C2=C(O)C1 (stereo not given)
- GI50 (HCT-116): > 100 µM (inactive)
- GI50 (OVCAR-3): > 100 µM (inactive)
- GI50 (SK-MEL-2): > 100 µM (inactive)
- GI50 (Malme-3M): > 100 µM (inactive)
- GI50 (EKVX): > 100 µM (inactive)
- GI50 (UACC-257): > 100 µM (inactive)
- GI50 (NCI-H226): > 100 µM (inactive)
- GI50 (U-251): > 100 µM (inactive)
- GI50 (NCI-H23): > 100 µM (inactive)
- GI50 (SW-620): > 100 µM (inactive)
- GI50 (HT-29): > 100 µM (inactive)
- GI50 (M14): > 100 µM (inactive)
- GI50 (MDA-MB-435): > 100 µM (inactive)
- GI50 (MDA-N): > 100 µM (inactive)
- GI50 (RPMI-8226): 67.8 µM (inactive)
- GI50 (DU-145): > 100 µM (inactive)
- GI50 (RXF 393): > 100 µM (inactive)
- GI50 (MOLT-4): 59 µM (inactive)
- GI50 (HCT-15): > 100 µM
